Measured values reported in patent US8044089B2, “3-3-di-substituted-oxindoles as inhibitors of translation initiation” (President and Fellows of Harvard College, priority 2004, dated 2011).

System: intracellular Ca^2+ stores
Test: Ca2+ release from intracellular stores (FURA-2AM loaded cells)
Assay type: cell-based
Set-up: key to Ca^2+ (Ca^2+ release from intracellular stores): a “+” denotes release; a “+/−” denotes inconclusive
Settings: not given
Excerpt: (§1) As a non-limiting example, compounds 1272 and 1273 (set forth in Table 1) were synthesized starting from 3-bromoaniline, which upon condensation with hydroxylamine and chloral hydrate followed by concentrated sulfuric acid yielded an inseparable regioisomeric mixture of 4- and 6-bromo isatins. The addition of the two phenyl groups to the three position of the oxindole allowed easy chromatographic separation of the 4- and 6-bromo-3,3-diphenyloxindoles 1272 and 1273. Table 1 sets forth biological data for diaryloxindole compounds including, but not limited to 1272 and 1273. For Tables 1-14, Ca^2+ refers to Ca^2+ release from intracellular stores where a “+” denotes release and a “+/−” denotes inconclusive; eIF2α-P refers to phosphorylation of eIF2α measured by Western blot; SRB refers to the inhibitory concentration to reduce cell growth by 50% (IC50) for growth inhibition of A549 lung cancer cells; and n.d. is not determined.
(§2) Without intending to be bound by theory, the mechanism of action of translation initiation inhibitors is set forth in FIG. 1, and includes the depletion (complete or partial depletion) of intracellular calcium (Ca^2+) stores and phosphorylation of eIF2α. Compounds synthesized using the approaches described herein were screened for their ability to partially deplete intracellular Ca^2+ stores using FURA-2AM loaded cells (Benzaquen et al. (1995) Nature Medicine, 1:534, incorporated herein by reference in its entirety for all purposes). A limited subset of compounds were further screened for their ability to deplete endoplasmic reticulum (ER) Ca^2+. The Ca^2+ content of the ER was monitored using ER-targeted, Ca^2+ sensitive, recombinant proteins. These recombinant proteins emitted light by fluorescent resonance energy transfer (FRET) as a function of the Ca^2+ content of the medium. Such assays are previously described (Miyawaki, A.; Mizuno, H.; Llopis, J.; Tsien, R. Y.; Jalink, K. Cameleons as cytosolic and intra-organellar calcium probes, Oxford University Press: Oxford, London, 2001; pp 3-16, incorporated herein by reference in its entirety for all purposes). Compounds that depleted Ca^2+ were further evaluated for their ability to phosphorylate eIF2α. eIF2α phosphorylation was measured by Western blot analysis using the phospho-specific anti-eIF2α antibody, as previously described (Aktas et al. (1998) Proc. Natl. Acad. Sci. USA, 95:8280, incorporated herein by reference in its entirety for all purposes).

| Compound | Ca^2+ (Ca^2+ release from intracellular stores) |
| --- | --- |
| CC(C)(C)c1ccc(O)c(C2(c3ccccc3)C(=O)Nc3ccc(Cl)cc32)c1 (stereo not drawn) [Compound 1215] | +/− |
| CC(C)(C)c1cccc(C2(c3ccccc3)C(=O)Nc3ccccc32)c1 (stereo not drawn) [Compound 1217] | + |
| CC(C)(C)c1ccc(O)c(C2(c3cccc(Cl)c3)C(=O)Nc3ccccc32)c1 (stereo not drawn) [Compound 1221] | + |
| CC(C)(C)c1ccc(O)c(C2(c3cccc(F)c3)C(=O)Nc3ccccc32)c1 (stereo not drawn) [Compound 1223] | + |
| Cc1cccc(C2(c3cc(C(C)(C)C)ccc3O)C(=O)Nc3ccccc32)c1 (stereo not drawn) [Compound 1224] | + |
| Cc1ccccc1C1(c2cc(C(C)(C)C)ccc2O)C(=O)Nc2ccccc21 (stereo not drawn) [Compound 1225] | + |
| COc1ccccc1C1(c2cc(C(C)(C)C)ccc2O)C(=O)Nc2ccccc21 (stereo not drawn) [Compound 1226] | + |
| CC(C)(C)c1ccc(O)c(C2(c3ccccc3)C(=O)Nc3c(C(F)(F)F)cccc32)c1 (stereo not drawn) [Compound 1230] | +/− |
| CC(C)(C)c1ccc(O)c(C2(c3ccccc3)C(=O)Nc3ccc(N)cc32)c1 (stereo not drawn) [Compound 1231] | + |
| CC(C)(C)c1ccc(O)c(C2(c3ccccc3)C(=O)Nc3cccc(Br)c32)c1 (stereo not drawn) [Compound 1234] | + |
| CC(C)(C)c1ccc(O)c(C2(c3ccccc3)C(=O)Nc3cc(Br)ccc32)c1 (stereo not drawn) [Compound 1235] | + |
| C=CCN1C(=O)C(c2ccccc2)(c2cc(C(C)(C)C)ccc2O)c2ccccc21 (stereo not drawn) [Compound 1236] | +/− |
| COc1ccccc1C1(c2ccc(C(C)(C)C)cc2)C(=O)Nc2ccccc21 (stereo not drawn) [Compound 1237] | + |
| CC(C)(C)c1ccc(C2(c3ccccc3O)C(=O)Nc3ccccc32)cc1 (stereo not drawn) [Compound 1239] | + |
| O=C1Nc2ccccc2C1(c1ccccc1)c1ccc(O)c(C(F)(F)F)c1 (stereo not drawn) [Compound 1242] | + |
| O=C1Nc2ccccc2C1(c1ccccc1)c1ccc(O)c(F)c1 (stereo not drawn) [Compound 1244] | + |
| CC(C)(C)c1ccc(O)c(C2(c3ccccc3)C(=O)Nc3c(I)cccc32)c1 (stereo not drawn) [Compound 1253] | + |
| CCc1ccc2c(c1)C(c1ccccc1)(c1cc(C(C)(C)C)ccc1O)C(=O)N2 (stereo not drawn) [Compound 1254] | + |

System: eIF2α
Test: eIF2α phosphorylation measured by Western blot
Assay type: cell-based
Settings: Western blot; unit or reference not given
Excerpt: as §1, §2

| Compound | eIF2α-P (phosphorylation of eIF2α measured by Western blot) |
| --- | --- |
| CC(C)(C)c1ccc(O)c(C2(c3ccccc3)C(=O)Nc3ccc(Cl)cc32)c1 (stereo not drawn) [Compound 1215] | 1.1 |
| CC(C)(C)c1cccc(C2(c3ccccc3)C(=O)Nc3ccccc32)c1 (stereo not drawn) [Compound 1217] | 1.5 |
| CC(C)(C)c1ccc(O)c(C2(c3cccc(Cl)c3)C(=O)Nc3ccccc32)c1 (stereo not drawn) [Compound 1221] | 3.24 |
| CC(C)(C)c1ccc(O)c(C2(c3cccc(F)c3)C(=O)Nc3ccccc32)c1 (stereo not drawn) [Compound 1223] | 4.41 |
| Cc1cccc(C2(c3cc(C(C)(C)C)ccc3O)C(=O)Nc3ccccc32)c1 (stereo not drawn) [Compound 1224] | 1.74 |
| Cc1ccccc1C1(c2cc(C(C)(C)C)ccc2O)C(=O)Nc2ccccc21 (stereo not drawn) [Compound 1225] | 1.69 |
| COc1ccccc1C1(c2cc(C(C)(C)C)ccc2O)C(=O)Nc2ccccc21 (stereo not drawn) [Compound 1226] | 2.22 |
| CC(C)(C)c1ccc(O)c(C2(c3ccccc3)C(=O)Nc3c(C(F)(F)F)cccc32)c1 (stereo not drawn) [Compound 1230] | 0.41 |
| CC(C)(C)c1ccc(O)c(C2(c3ccccc3)C(=O)Nc3ccc(N)cc32)c1 (stereo not drawn) [Compound 1231] | 1.46 |
| CC(C)(C)c1ccc(O)c(C2(c3ccccc3)C(=O)Nc3cccc(Br)c32)c1 (stereo not drawn) [Compound 1234] | 2.57 |
| CC(C)(C)c1ccc(O)c(C2(c3ccccc3)C(=O)Nc3cc(Br)ccc32)c1 (stereo not drawn) [Compound 1235] | 3.2 |
| C=CCN1C(=O)C(c2ccccc2)(c2cc(C(C)(C)C)ccc2O)c2ccccc21 (stereo not drawn) [Compound 1236] | 2.23 |
| COc1ccccc1C1(c2ccc(C(C)(C)C)cc2)C(=O)Nc2ccccc21 (stereo not drawn) [Compound 1237] | 1.3 |
| CC(C)(C)c1ccc(C2(c3ccccc3O)C(=O)Nc3ccccc32)cc1 (stereo not drawn) [Compound 1239] | 1.88 |
| O=C1Nc2ccccc2C1(c1ccccc1)c1ccc(O)c(C(F)(F)F)c1 (stereo not drawn) [Compound 1242] | 2.72 |
| O=C1Nc2ccccc2C1(c1ccccc1)c1ccc(O)c(F)c1 (stereo not drawn) [Compound 1244] | 1.38 |
| CC(C)(C)c1ccc(O)c(C2(c3ccccc3)C(=O)Nc3c(I)cccc32)c1 (stereo not drawn) [Compound 1253] | 2.05 |
| CCc1ccc2c(c1)C(c1ccccc1)(c1cc(C(C)(C)C)ccc1O)C(=O)N2 (stereo not drawn) [Compound 1254] | 2.12 |

System: A549 lung cancer cells
Test: SRB growth inhibition of A549 lung cancer cells
Assay type: cell-based, human
Settings: A549 lung cancer cells; unit inferred; read-out: SRB (IC50 for growth inhibition of A549 lung cancer cells)
Excerpt: As a non-limiting example, compounds 1272 and 1273 (set forth in Table 1) were synthesized starting from 3-bromoaniline, which upon condensation with hydroxylamine and chloral hydrate followed by concentrated sulfuric acid yielded an inseparable regioisomeric mixture of 4- and 6-bromo isatins. The addition of the two phenyl groups to the three position of the oxindole allowed easy chromatographic separation of the 4- and 6-bromo-3,3-diphenyloxindoles 1272 and 1273. Table 1 sets forth biological data for diaryloxindole compounds including, but not limited to 1272 and 1273. For Tables 1-14, Ca^2+ refers to Ca^2+ release from intracellular stores where a “+” denotes release and a “+/−” denotes inconclusive; eIF2α-P refers to phosphorylation of eIF2α measured by Western blot; SRB refers to the inhibitory concentration to reduce cell growth by 50% (IC50) for growth inhibition of A549 lung cancer cells; and n.d. is not determined. […]

| Compound | IC50 |
| --- | --- |
| CC(C)(C)c1ccc(O)c(C2(c3ccccc3)C(=O)Nc3ccc(Cl)cc32)c1 (stereo not drawn) [Compound 1215] | 3 µM |
| CC(C)(C)c1cccc(C2(c3ccccc3)C(=O)Nc3ccccc32)c1 (stereo not drawn) [Compound 1217] | 4 µM |
| CC(C)(C)c1ccc(O)c(C2(c3cccc(Cl)c3)C(=O)Nc3ccccc32)c1 (stereo not drawn) [Compound 1221] | 3 µM |
| CC(C)(C)c1ccc(O)c(C2(c3cccc(F)c3)C(=O)Nc3ccccc32)c1 (stereo not drawn) [Compound 1223] | 7 µM |
| Cc1cccc(C2(c3cc(C(C)(C)C)ccc3O)C(=O)Nc3ccccc32)c1 (stereo not drawn) [Compound 1224] | 9 µM |
| Cc1ccccc1C1(c2cc(C(C)(C)C)ccc2O)C(=O)Nc2ccccc21 (stereo not drawn) [Compound 1225] | 4 µM |
| COc1ccccc1C1(c2cc(C(C)(C)C)ccc2O)C(=O)Nc2ccccc21 (stereo not drawn) [Compound 1226] | 3 µM |
| CC(C)(C)c1ccc(O)c(C2(c3ccccc3)C(=O)Nc3c(C(F)(F)F)cccc32)c1 (stereo not drawn) [Compound 1230] | 3 µM |
| CC(C)(C)c1ccc(O)c(C2(c3ccccc3)C(=O)Nc3ccc(N)cc32)c1 (stereo not drawn) [Compound 1231] | 14 µM |
| CC(C)(C)c1ccc(O)c(C2(c3ccccc3)C(=O)Nc3cccc(Br)c32)c1 (stereo not drawn) [Compound 1234] | 6 µM |

Second part, the compound after the results:

| IC50 | Compound |
| --- | --- |
| 4 µM | CC(C)(C)c1ccc(O)c(C2(c3ccccc3)C(=O)Nc3cc(Br)ccc32)c1 (stereo not drawn) [Compound 1235] |
| 3 µM | C=CCN1C(=O)C(c2ccccc2)(c2cc(C(C)(C)C)ccc2O)c2ccccc21 (stereo not drawn) [Compound 1236] |
| 17 µM | COc1ccccc1C1(c2ccc(C(C)(C)C)cc2)C(=O)Nc2ccccc21 (stereo not drawn) [Compound 1237] |
| 8 µM | CC(C)(C)c1ccc(C2(c3ccccc3O)C(=O)Nc3ccccc32)cc1 (stereo not drawn) [Compound 1239] |
| 14 µM | O=C1Nc2ccccc2C1(c1ccccc1)c1ccc(O)c(C(F)(F)F)c1 (stereo not drawn) [Compound 1242] |
| 12 µM | O=C1Nc2ccccc2C1(c1ccccc1)c1ccc(O)c(F)c1 (stereo not drawn) [Compound 1244] |
| 6 µM | CC(C)(C)c1ccc(O)c(C2(c3ccccc3)C(=O)Nc3c(I)cccc32)c1 (stereo not drawn) [Compound 1253] |
| 4 µM | CCc1ccc2c(c1)C(c1ccccc1)(c1cc(C(C)(C)C)ccc1O)C(=O)N2 (stereo not drawn) [Compound 1254] |
